From patent US20080138838A1, “DIAGNOSIS OF ZD1839 RESISTANT TUMORS” (CEDARS-SINAI MEDICAL CENTER, priority 2002, published 2008) come the findings set out here.

This assay has as its system androgen-independent human cell line CWR22R grown as a xenograft. The assay is described as follows: ZD1839 resistant xenograft model of human prostate cancer. Type of assay: in vivo. The protocol:
The androgen-independent human cell line CWR22R was grown as a xenograft in nude mice. See Nagabhushan, et al. (1996) Cancer Res. 56:3042-3046; Agus, et al. (1999) J. Nat'l Cancer Inst. 91:1869-1876; and Bubendorf, et al. (1999) J. Nat'l Cancer Inst. 91:1758-1764. […] The mice were treated continuously with sub-therapeutic doses, and the tumors were allowed to grow for 3-4 weeks, before surgical removal of the tumors. The tumor from an individual mouse was then minced, and a small portion was then injected into a healthy nude mouse, establishing a second passage of the tumor. This mouse was then treated continuously with the same sub-therapeutic dose of ZD1839. This process was repeated 10 times, and a portion of each generation of xenograft tumor was collected. […] RNA from each generation of tumor was then isolated, and individual mRNA species were quantified using a custom Affymetrix GENECHIP® (DNA microarray chip) oligonucleotide microarray (Eos Hu03), with probes to interrogate approximately 46,000 unique mRNA transcripts. […] The gene products of the genes listed in Tables 1A-C may be particularly useful as targets in the treatment of ZD1839 resistant tumors derived from prostate cancer, small cell lung cancer, breast cancer, glioblastoma, cervical cancer, colon cancer, head and neck cancer, renal cell carcinoma, and pancreatic cancer. Prostate cancer includes epithelial neoplasms (e.g., adenocarcinoma, small cell tumors, transitional cell carcinoma, carcinoma in situ, and basal cell carcinoma), carcinosarcoma, non-epithelial neoplasms (e.g., mesenchymal and lymphoma), germ cell tumors, prostatic intraepithelial neoplasia (PIN), hormone independent prostate cancer, and metastatic prostate cancer (e.g., to bone, lung, or lymph node).
In general terms: Xenograft models place foreign cells or tissue in a host animal.

With `COc1cc2ncnc(Nc3ccc(F)c(Cl)c3)c2cc1OCCCN1CCOCC1` [ZD1839], the “response of xenograft tumors to therapeutic doses of ZD1839” value was “fully resistant to therapeutic doses” (end of the process (passaging repeated 10 times under continuous sub-therapeutic doses, nude mice)) and “sensitive to therapeutic doses” (initially (parental CWR22R xenograft in nude mice)). Further, where the note is “successive passages in nude mice under continuous sub-therapeutic doses”, the “resistance of xenograft tumors to therapeutic doses of ZD1839” value was “increased with each generation”.
